Data as given in US11912723B2, “KRAS modulators and uses thereof” (Quanta Therapeutics, Inc., priority 2022, dated 2024).

What was measured:
[1] = molecular target: T1, KRAS G12D/RAF1 (Homo sapiens, UniProt P01116, G12D); assay: Protein-protein interaction (PPI) HTRF assay KRAS G12D/RAF1; type: binding; conditions: KRAS G12D/RAF1, GppNHp-loaded KRAS; 30 minutes pre-incubation
T1 construct: KRAS (1-169) proteins were expressed in E. coli at 18° C; His6-MBP (N, cleaved yes); made in house; host or cells: E. coli
T1 sequence (P01116 1-169 isoform P01116-2 G12D): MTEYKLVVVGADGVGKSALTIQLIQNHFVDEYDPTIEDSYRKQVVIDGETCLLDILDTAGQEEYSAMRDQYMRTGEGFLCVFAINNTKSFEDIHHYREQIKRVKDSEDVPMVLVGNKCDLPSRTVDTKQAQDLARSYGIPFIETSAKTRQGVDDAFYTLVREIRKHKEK
In short: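 IC50 values come from the 665/615 HTRF ratio, scaled between no-compound (0% inhibition) and untagged RAF1 (100%). GppNHp-exchanged, biotinylated RAS (1-169) solution at 16 nM met compound for 30 min at room temperature. Then 16 nM His-tagged RAF1 (52-131) donor solution was added and incubated 1 h.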

[2] = molecular target: T2, wtNRAS/RAF1 (Homo sapiens, UniProt P01111); assay: Protein-protein interaction (PPI) HTRF assay w.t.NRAS/RAF1; type: binding
T2 construct: (1-169); His6-SUMO (N, cleaved yes); made in house; host or cells: E. coli (printed for the KRAS and RAF1 constructs; not explicitly for NRAS)
T2 sequence (P01111 1-169): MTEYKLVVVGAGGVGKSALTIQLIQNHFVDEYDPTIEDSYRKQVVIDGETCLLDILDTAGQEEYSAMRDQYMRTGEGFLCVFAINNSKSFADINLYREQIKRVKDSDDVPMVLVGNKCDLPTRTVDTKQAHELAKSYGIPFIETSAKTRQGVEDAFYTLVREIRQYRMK
Procedure: (§1) Biotinylated KRAS wt and KRAS G12DNV proteins were expressed and purified in conditions similar to those previously reported (Tran, et al., 2021) (Zhang, et al., 2020). Briefly, KRAS (1-169) proteins were expressed in E. coli at 18° C. with an upstream TEV cleavage site (ENLFYQS) followed an Avi tag sequence ([…]). KIRAS expression constructs contained both a His6 and maltose-binding protein (MBP) tags at the N-terminus for Ni-NTA column purification prior to overnight TEV cleavage and MBP column purification. The avi-tagged NRAS expression construct contained both a His6 tag and SUMO cleavage sige at the N-terminus for Ni-NTA column purification followed by His-ULP1 digestion overnight. All avi-tagged RAS proteins were dialyzed into buffer containing ATP, biotin, and BirA followed by purification over a second Ni-NTA column and then run over a size exclusion HiLoad™ 26/600 Superdex™ column in 20 mM HEPES, pH 7.5, 300 mM NaCl, 5 mM MgCl2, and 1 mM TCEP. Fractions containing the protein of interest were pooled, concentrated, and confirmed by intact mass spectrometry. To prepare ‘GTP’ loaded KRAS and NRAS, biotinylated KRAS or NRAS was nucleotide exchanged from GDP-bound protein to GppNHp-bound (Jena Biosciences, NU-401-50) protein in the presence of alkaline phosphatase and excess GppNHp as previously described and the resulting nucleotide content was confirmed by HPLC reverse phase analytical chromatography (Donohue, et al., 2019) (Tran, et al., 2021).
(§2) His-tagged RAF1 (52-131) was similarly expressed in E. coli at 18° C. overnight with an upstream TEV cleavage site. His-tagged RAF1 expression construct contained both a His6 and MBP tags at the N-terminus for Ni-NTA column purification followed by MBP-tagged TEV digestion overnight. RAF1 protein samples were further purified over a MBP column followed by a Ni-NTA column and a second MBP column. The fractions containing the protein of interest were pooled, concentrated, and further purified over a HiLoad™ 16/600 Superdex™ 75 pg size exclusion column into 20 mM HEPES, pH8.0, 200 mM NaCl, 5 mM TCEP.
(§3) When RAS proteins are in the active GTP-bound conformation, they bind the effector protein RAF1 at the N-terminus Ras-binding domain (RBD, residues 52-131) (Tran, et al., 2021). Homogenous time resolved fluorescence (HTRF) was used to monitor the interaction between wt or mutant KRAS and RAF1 or wt NRAS and RAFT. Compounds were assayed in the presence of KRAS G12D/V and RAF1 versus wt KRAS to assess activity against mutant and w.t. KRAS. Similarly, compounds were then assayed in the presence of w.t. NRAS and RAF1 to assess RAS isoform selectivity. In all assay formats, His-tagged RAF1 protein was incubated with the HTRF donor, anti-6His Tb Cryptate gold (Cisbio 61DB10RDF), and biotinylated RAS proteins were incubated with the HTRF acceptor, streptavidin-d2 (CisBio 610SADLA). The intensity of the fluorescence signal emitted is proportional to binding between the two proteins. The donor solution was prepared by mixing 16 nM His-tagged RAF1 in protein dilution buffer with 1:100 anti-6His Tb cryptate in PPI-Terbium detection buffer. 16 nM biotinylated RAS protein was diluted into protein dilution buffer (50 mM Tris-HCl pH 7.5, 150 mM NaCl, 0.1 mM MgCl2, 1 mM TCEP, 0.005% Tween20) and mixed with 1:2000 Streptavidin-d2 diluted in PPI-Terbium detection buffer (CisBio 61DB10RDF). 50× compound in DMSO was mixed with 16 nM KRAS-acceptor solution and incubated for 30 minutes at room temperature. After compound pre-incubation with KRAS, the RAF1 donor solution was added to the KRAS-acceptor solution and incubated for 1 hour at room temperature. The fluorescence signal emitted was monitored at 665 nm and 615 nm using an Envision multimode plate reader. The HTRF ratio (665/615) was calculated and normalized to 0% inhibition in the absence of compound and 100% inhibition in the presence of untagged RAF1 protein. […]

[3] = molecular target: T3, GST-tagged KRAS G12D (2-169) (Homo sapiens, UniProt P01116, G12D); assay: Nucleotide exchange assay (NEA), HTRF of SOS-mediated GTP-DY-647P1 binding; type: biochemical; conditions: 5 nM GST-KRAS G12D, 20 nM SOScat, 150 nM GTP; compound 1 h at RT
T3 construct: GST-tagged KRAS^G12D (2-169, Reaction Biology, MSC-11-539); purchased Reaction Biology MSC-11-539 (KRAS G12D); MSC-11-502 (SOS1cat)
T3 sequence (P01116 2-169 isoform P01116-2 G12D): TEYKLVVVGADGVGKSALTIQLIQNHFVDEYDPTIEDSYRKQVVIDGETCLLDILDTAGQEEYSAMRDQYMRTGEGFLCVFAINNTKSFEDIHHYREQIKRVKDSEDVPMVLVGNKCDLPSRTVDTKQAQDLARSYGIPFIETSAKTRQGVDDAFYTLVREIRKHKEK
In short: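 After 1 h RT preincubation of compound with KRAS, SOS1cat (20 nM final) and fluorescent GTP analog (150 nM) were added to 5 nM KRAS; HTRF (anti-GST Tb donor) followed at RT for up to 90 min. % inhibition relative to DMSO and no-SOS1 blank, 4-parameter curve fit.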

[4] = molecular target: T4, wtKRAS/RAF1 (Homo sapiens, UniProt P01116); assay: Protein-protein interaction (PPI) HTRF assay w.t.KRAS/RAF1; type: binding
T4 construct: KRAS (1-169) proteins were expressed in E. coli at 18° C; His6-MBP (N, cleaved yes); made in house; host or cells: E. coli
T4 sequence (P01116 1-169 isoform P01116-2): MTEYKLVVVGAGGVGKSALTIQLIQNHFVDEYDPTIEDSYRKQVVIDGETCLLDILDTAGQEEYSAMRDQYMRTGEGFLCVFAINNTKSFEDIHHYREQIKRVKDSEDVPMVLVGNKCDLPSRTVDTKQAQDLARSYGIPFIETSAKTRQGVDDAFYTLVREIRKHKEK
Procedure: as §1, §2, §3

[5] = molecular target: T5, KRAS G12V/RAF1 (Homo sapiens, UniProt P01116, G12V); assay: Protein-protein interaction (PPI) HTRF assay KRAS G12V/RAF1; type: binding; conditions: KRASG12V/RAF1
T5 construct: KRAS (1-169) proteins were expressed in E. coli at 18° C; His6-MBP (N, cleaved yes); made in house; host or cells: E. coli
T5 sequence (P01116 1-169 isoform P01116-2 G12V): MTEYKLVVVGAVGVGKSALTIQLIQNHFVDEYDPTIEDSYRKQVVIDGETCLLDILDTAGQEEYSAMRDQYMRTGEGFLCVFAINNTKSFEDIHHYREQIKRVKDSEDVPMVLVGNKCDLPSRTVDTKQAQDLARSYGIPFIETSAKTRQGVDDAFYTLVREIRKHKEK
Procedure: as §1, §2, §3

[6] = system: AGS (KRAS G12D) cells, phospho-ERK; assay: pERK In Cell Western (ICW) assay (Method B); type: cell-based; conditions: Homo sapiens, 3 hours
Procedure: pERK ICW is a high throughput screening assay to evaluate the cellular potency of mutant KRAS small molecule inhibitors. KRAS mutant cell line AGS (KRAS^G12D) were purchased from ATCC and maintained in DMEM and RPMI medium supplemented with 10% fetal bovine serum and Penicillin/Streptomycin.
Cells grown in exponential phase were trypsinized, resuspended in fresh media, and viable cells were counted using a cell counter with Trypan Blue (BioRad TC20). Cells were seeded into 384-well plate (Greiner 781091) at density of 5,000 cells/well for AGS and allowed to grow overnight in a 37° C. CO2 incubator. The next day, compounds were dispensed into wells with a ½ log, 10-point serial dilution and top concentration of 10 μM using Tecan D300e dispenser and incubated for 3 hours in a 37° C. CO2 incubator. Cells were then fixed with paraformaldehyde (Electron Microscopy Sciences, 15710, 4% final concentration) for 30 min, permeabilized with wash buffer (1×PBS+0.1% Triton X-100) for 30 min and blocked with Odyssey blocking buffer (Li—COR 927-70001) for 1 hour, all at room temperature (RT). Phospho-ERK antibody (CST 4370L) was diluted 1:500 in Odyssey blocking+0.2% Tween 20 and incubated with cells overnight at 4° C. The next day, plates were washed 5× with wash buffer, incubated with IRDye 800 CW, Goat anti-Rabbit secondary antibody (Li—COR 926-32211, 1:500) and DRAQ5 (CST 4084L, 1:5,000) diluted in Odyssey blocking+0.2% Tween 20 for 1 hour, washed 5×, and imaged on an Odyssey CLx imaging system.
For data analysis, signal intensities from 800 (phosphor-ERK) and 700 (DRAQ5) channels were extracted, and phospho-ERK signals were normalized to DRAQ5 signals for each well and percent of DMSO control values were computed. Data were then imported into Graphpad Prism to compute half-maximal inhibitory concentrations (IC50) using a 4-parameter variable slope model. Z-factor for each plate was computed from signals derived from wells treated with either DMSO or 5 μM of Trametinib. AGS pERK ICW (Method B) IC50 (uM) values of selected compounds are depicted in Table 2 with compounds having a value 0.001 uM to 0.01 uM as ++++; >0.01 uM to 0.1 uM as +++; >0.1 uM to 1 uM as ++; 1 uM to 10 uM as + and >10 uM as NA.

| SMILES | IC50 [1] | IC50 [2] | IC50 [3] | IC50 [4] | IC50 [5] | IC50 [6] |
| --- | --- | --- | --- | --- | --- | --- |
| C[C@@]1(O)CCCN(c2nc(OC[C@@]34CCCN3C[C@H](F)C4)nc3c2COC2(CCc4c(Cl)cccc42)C3)C1 (stereo partly drawn) [Compound 23, (3R)-1-(4-chloro-2′-(((2R,7aS)-2-fluorotetrahydro-1H-pyrrolizin-7a(5H)-yl)methoxy)-2,3,5′,8′-tetrahydrospiro[indene-1,7′-pyrano[4,3-d]pyrimidin]-4′-yl)-3-methylpiperidin-3-ol] | 10 to 100 µM | > 100 µM | 1 to 20 µM | > 100 µM | 10 to 100 µM | – |
| O=C1NC(=O)C2(CCCN(c3nc(OC[C@@]45CCCN4C[C@H](F)C5)nc4c3COC3(CCc5c(Cl)cccc53)C4)C2)N1 (stereo partly drawn) [Compound 24, 9-[4′-chloro-2-[[(2R,8S)-2-fluoro-1,2,3,5,6,7-hexahydropyrrolizin-8-yl]methoxy]spiro[5,8-dihydropyrano[4,3-d]pyrimidine-7,1′-indane]-4-yl]-1,3,9-triazaspiro[4.5]decane-2,4-dione] | 10 to 100 µM | > 100 µM | 0.1 to 1 µM | 10 to 100 µM | 10 to 100 µM | – |
| CN1Cc2c(nc(OC[C@@]34CCCN3C[C@H](F)C4)nc2N2CCC[C@]3(C2)NC(=O)NC3=O)C[C@]12CCc1c(F)cccc12 [Compound 68, (5R)-9-[(7S)-4′-fluoro-2-[[(2R,8S)-2-fluoro-1,2,3,5,6,7-hexahydropyrrolizin-8-yl]methoxy]-6-methyl-spiro[5,8-dihydropyrido[4,3-d]pyrimidine-7,1′-indane]-4-yl]-1,3,9-triazaspiro[4.5]decane-2,4-dione] | – | – | 0.01 to 0.1 µM | – | – | > 10 µM |
| CN1Cc2c(nc(OC[C@@]34CCCN3C[C@H](F)C4)nc2N2CCC[C@]3(C2)NC(=O)NC3=O)C[C@]12CCc1cccc(Cl)c12 [Compound 70, (5R)-9-[(7S)-7′-chloro-2-[[(2R,8S)-2-fluoro-1,2,3,5,6,7-hexahydropyrrolizin-8-yl]methoxy]-6-methyl-spiro[5,8-dihydropyrido[4,3-d]pyrimidine-7,1′-indane]-4-yl]-1,3,9-triazaspiro[4.5]decane-2,4-dione] | – | – | 0.01 to 0.1 µM | – | – | 1 to 10 µM |
